Structures can show the parent of a compound that is named as a salt. Marks after values point to notes of the source that are not given here.
Assays:
[1] = system: Eosinophil peroxidase; assay: Uterine Eosinophil Peroxidase (EPO) Assay on uteri of dosed ovariectomized rats; format: in vivo, Sprague Dawley rats; conditions: daily for 4 days, OVX rats
From the text: (§1) Seventy-five day old female Sprague Dawley rats (weight range of 200 to 225g) are obtained from Charles River Laboratories (Portage, MI). The animals are either bilaterally ovariectomized (OVX) or exposed to a Sham surgical procedure at Charles River Laboratories, and then shipped after one week. Upon arrival, they are housed in metal hanging cages in groups of 3 or 4 per cage and have ad libitum access to food (calcium content approximately 0.5%) and water for one week. Room temperature is maintained at 22.2° ± 1.7° C with a minimum relative humidity of 40%. The photoperiod in the room is 12 hours light and 12 hours dark. Dosing Regimen Tissue Collection. After a one week acclimation period (therefore, two weeks post-OVX) daily dosing with test compound is initiated. 17a-ethynyl estradiol or the test compound are given orally, unless otherwise stated, as a suspension in 1% carboxymethylcellulose or dissolved in 20% cyclodextrin. Animals are dosed daily for 4 days. Following the dosing regimen, animals are weighed and anesthetized with a ketamine: Xylazine (2:1, V:V) mixture and a blood sample is collected by cardiac puncture. The animals are then sacrificed by asphyxiation with CO2, the uterus is removed through a midline incision, and a wet uterine weight is determined.
(§2) Cholesterol Analysis. Blood samples are allowed to clot at ambient temperature for 2 hours, and serum is obtained following centrifugation for 10 minutes at 3000 rpm. Serum cholesterol is determined using a Boehringer Mannheim Diagnostics high performance cholesterol assay. Briefly, the cholesterol is oxidized to cholest-4-en-3-one […]. The hydrogen peroxide is then reacted with phenol and 4-aminophenazone in the presence of peroxidase to produce a p-quinone imine dye, which is read spectrophotemetrically at 500 nm. Cholesterol concentration is then calculated against a standard curve. The entire assay is automated using a Biomek Automated Workstation. Uterine Eosinophil Peroxidase (EPO) Assay. Uteri are kept at 4° C until time of enzymatic analysis. The uteri are then homogenized in 50 volumes of 50 mM Tris buffer (pH - 8.0) containing 0.005% Triton X-100. Upon addition of 0.01% hydrogen peroxide and 10 mM O-phenylenediamine (final concentrations) in Tris buffer, increase in absorbance is monitored for one minute at 450 nm. The presence of eosinophils in the uterus is an indication of estrogenic activity of a compound. The maximal velocity of a 15 second interval is determined over the initial, linear portion of the reaction curve. Source of Compound: 17a-ethynyl estradiol was obtained from Sigma Chemical Co., St. Louis, MO.

[2] = system: female Sprague Dawley rats; assay: Estrogen deprivation model in ovariectomized rats: serum cholesterol analysis; format: in vivo; conditions: daily for 4 days, OVX rats, decrease versus ovariectomized controls
Procedure: (§3) In the examples illustrating the methods, an estrogen deprivation model was used in which effects of different treatments upon circulating lipids were determined.
as §1, §2

[3] = system: female Sprague Dawley rats; assay: Estrogen deprivation model in ovariectomized rats: wet uterine weight; format: in vivo; conditions: daily for 4 days, OVX rats, % increase versus the ovariectomized controls
Procedure: as §3, §1

C#C[C@]1(O)CC[C@H]2[C@@H]3CCc4cc(O)ccc4[C@H]3CC[C@@]21C [EE2, 17-a-Ethynyl-estradiol, reference compound]
Uterine Eosinophil (Vmax) ([1]; 0.1 mg/kg PO): 54.6* | Serum Cholesterol (% Dec.) ([2]; 0.1 mg/kg PO): 75.9* % Dec. | Uterine Weight (% Inc.) ([3]; 0.1 mg/kg PO): 96.0* % Inc.

O=C(CN1CCCCC1)Nc1ccc(Oc2c(-c3ccc(O)cc3)ccc3cc(O)ccc23)cc1 [Example 2, 1-[4-[2-(1-Piperidinyl)acetylamido]phenoxy-2-(4-hydroxyphenyl)-6-hydroxynaphthalene Hydrochloride]
Uterine Eosinophil (Vmax) ([1]; 0.1 mg/kg PO): 1.8 | Uterine Eosinophil (Vmax) ([1]; 1.0 mg/kg PO): 11.7 | Uterine Eosinophil (Vmax) ([1]; 10.0 mg/kg PO): 71.1* | Serum Cholesterol (% Dec.) ([2]; 0.1 mg/kg PO): 27 % Dec. | Serum Cholesterol (% Dec.) ([2]; 1.0 mg/kg PO): 66.4* % Dec. | Serum Cholesterol (% Dec.) ([2]; 10.0 mg/kg PO): 57.6* % Dec. | Uterine Weight (% Inc.) ([3]; 0.1 mg/kg PO): 13.6 % Inc. | Uterine Weight (% Inc.) ([3]; 1.0 mg/kg PO): 59.0* % Inc. | Uterine Weight (% Inc.) ([3]; 10.0 mg/kg PO): 107.0* % Inc.

Oc1ccc(-c2ccc3cc(O)ccc3c2Oc2ccc(NCCN3CCCCC3)cc2)cc1 [Example 4, 1-[4-[2-(1-Piperidinyl)ethylamino]phenoxy]-2-(4-hydroxyphenyl)-6-hydroxynaphthalene]
Uterine Eosinophil (Vmax) ([1]; 0.01 mg/kg PO): 2.7 | Uterine Eosinophil (Vmax) ([1]; 0.1 mg/kg PO): 4.5 | Uterine Eosinophil (Vmax) ([1]; 1.0 mg/kg PO): 5.4 | Serum Cholesterol (% Dec.) ([2]; 0.01 mg/kg PO): 20.8* % Dec. | Serum Cholesterol (% Dec.) ([2]; 0.1 mg/kg PO): 59.9* % Dec. | Serum Cholesterol (% Dec.) ([2]; 1.0 mg/kg PO): 75.3* % Dec. | Uterine Weight (% Inc.) ([3]; 0.01 mg/kg PO): 7.1 % Inc. | Uterine Weight (% Inc.) ([3]; 0.1 mg/kg PO): 39.8* % Inc. | Uterine Weight (% Inc.) ([3]; 1.0 mg/kg PO): 25.4 % Inc.

From patent EP0835868A1, “2-Aryl-3-aminoaryloxynaphthyl compounds, intermediates, compositions and methods” (ELI LILLY AND COMPANY, priority 1996, dated 1998)
